Experiments:
[1] = mn = molality of the nth substance listed, in mol/kg; conditions: 101 kPa, Liquid; for viscosity: Capillary tube (Ostwald / Ubbelohde) method
[2] = refractive index (Na D-line) (dimensionless); conditions: 298.15 K; 101.33 kPa; Liquid; Standard Abbe refractometry
[3] = 298.15 K; 101.33 kPa; Liquid; Pycnometric method

COCCOCCO [2-(2-methoxyethoxy)ethanol] + O
[1]
Conditions	viscosity [mPa·s]
275.15 K, m1 = 0.0099	1.004
275.15 K, m1 = 0.0209	1.009
275.15 K, m1 = 0.0309	1.014
275.15 K, m1 = 0.0396	1.018
275.15 K, m1 = 0.052	1.023
275.15 K, m1 = 0.061	1.028
275.15 K, m1 = 0.0706	1.032
275.15 K, m1 = 0.0799	1.037
275.15 K, m1 = 0.093	1.044
275.15 K, m1 = 0.1057	1.05
283.15 K, m1 = 0.0109	1.004
283.15 K, m1 = 0.0191	1.008
283.15 K, m1 = 0.0303	1.012
283.15 K, m1 = 0.0406	1.016
283.15 K, m1 = 0.0487	1.02
283.15 K, m1 = 0.0599	1.024
283.15 K, m1 = 0.0709	1.029
283.15 K, m1 = 0.0806	1.033
283.15 K, m1 = 0.09	1.037
283.15 K, m1 = 0.0901	1.037
283.15 K, m1 = 0.1009	1.041

[1]
Conditions	mass density [kg/m3]
275.15 K, Pycnometric method, m1 = 0.0099	1000.07
275.15 K, Pycnometric method, m1 = 0.0209	1000.18
275.15 K, Pycnometric method, m1 = 0.0309	1000.32
275.15 K, Pycnometric method, m1 = 0.0396	1000.42
275.15 K, Pycnometric method, m1 = 0.052	1000.56
275.15 K, Pycnometric method, m1 = 0.061	1000.66
275.15 K, Pycnometric method, m1 = 0.0706	1000.76
275.15 K, Pycnometric method, m1 = 0.0799	1000.86
275.15 K, Pycnometric method, m1 = 0.093	1000.98
275.15 K, Pycnometric method, m1 = 0.1057	1001.12
283.15 K, Buoyancy - hydrostatic balance with magnetic suspension - one sinker, m1 = 0.0109	999.8
283.15 K, Buoyancy - hydrostatic balance with magnetic suspension - one sinker, m1 = 0.0191	999.93
283.15 K, Buoyancy - hydrostatic balance with magnetic suspension - one sinker, m1 = 0.0303	1000.04
283.15 K, Buoyancy - hydrostatic balance with magnetic suspension - one sinker, m1 = 0.0406	1000.11
283.15 K, Buoyancy - hydrostatic balance with magnetic suspension - one sinker, m1 = 0.0487	1000.17
283.15 K, Buoyancy - hydrostatic balance with magnetic suspension - one sinker, m1 = 0.0599	1000.27
283.15 K, Buoyancy - hydrostatic balance with magnetic suspension - one sinker, m1 = 0.0709	1000.38
283.15 K, Buoyancy - hydrostatic balance with magnetic suspension - one sinker, m1 = 0.0806	1000.47
283.15 K, Buoyancy - hydrostatic balance with magnetic suspension - one sinker, m1 = 0.09	1000.56
283.15 K, Buoyancy - hydrostatic balance with magnetic suspension - one sinker, m1 = 0.0901	1000.59
283.15 K, Buoyancy - hydrostatic balance with magnetic suspension - one sinker, m1 = 0.1009	1000.68

CCOCCO [2-ethoxyethan-1-ol]
Conditions	mass density [kg/m3]	refractive index
[2]	–	1.4057
[3]	925.05	–

CCOCCO [2-ethoxyethan-1-ol] + O
[1]
Conditions	viscosity [mPa·s]
275.15 K, m1 = 0.0102	1.005
275.15 K, m1 = 0.0202	1.01
275.15 K, m1 = 0.0294	1.015
275.15 K, m1 = 0.0459	1.025
275.15 K, m1 = 0.0502	1.028
275.15 K, m1 = 0.0602	1.035
275.15 K, m1 = 0.071	1.042
275.15 K, m1 = 0.0818	1.05
275.15 K, m1 = 0.0902	1.057
275.15 K, m1 = 0.1008	1.065
283.15 K, m1 = 0.0067	1.002
283.15 K, m1 = 0.0191	1.006
283.15 K, m1 = 0.0303	1.01
283.15 K, m1 = 0.0392	1.014
283.15 K, m1 = 0.0492	1.018
283.15 K, m1 = 0.0598	1.022
283.15 K, m1 = 0.0682	1.026
283.15 K, m1 = 0.0799	1.032
283.15 K, m1 = 0.0885	1.036
283.15 K, m1 = 0.0906	1.037
283.15 K, m1 = 0.0996	1.042
283.15 K, m1 = 0.1004	1.043

[1]
Conditions	mass density [kg/m3]
275.15 K, Pycnometric method, m1 = 0.0102	999.95
275.15 K, Pycnometric method, m1 = 0.0202	999.95
275.15 K, Pycnometric method, m1 = 0.0294	999.95
275.15 K, Pycnometric method, m1 = 0.0459	999.96
275.15 K, Pycnometric method, m1 = 0.0502	999.96
275.15 K, Pycnometric method, m1 = 0.0602	999.97
275.15 K, Pycnometric method, m1 = 0.071	1000
275.15 K, Pycnometric method, m1 = 0.0818	1000
275.15 K, Pycnometric method, m1 = 0.0902	1000.01
275.15 K, Pycnometric method, m1 = 0.1008	1000.03
283.15 K, Buoyancy - hydrostatic balance with magnetic suspension - one sinker, m1 = 0.0067	999.7
283.15 K, Buoyancy - hydrostatic balance with magnetic suspension - one sinker, m1 = 0.0191	999.71
283.15 K, Buoyancy - hydrostatic balance with magnetic suspension - one sinker, m1 = 0.0303	999.71
283.15 K, Buoyancy - hydrostatic balance with magnetic suspension - one sinker, m1 = 0.0392	999.74
283.15 K, Buoyancy - hydrostatic balance with magnetic suspension - one sinker, m1 = 0.0492	999.72
283.15 K, Buoyancy - hydrostatic balance with magnetic suspension - one sinker, m1 = 0.0598	999.72
283.15 K, Buoyancy - hydrostatic balance with magnetic suspension - one sinker, m1 = 0.0682	999.73
283.15 K, Buoyancy - hydrostatic balance with magnetic suspension - one sinker, m1 = 0.0799	999.73
283.15 K, Buoyancy - hydrostatic balance with magnetic suspension - one sinker, m1 = 0.0885	999.73
283.15 K, Buoyancy - hydrostatic balance with magnetic suspension - one sinker, m1 = 0.0906	999.73
283.15 K, Buoyancy - hydrostatic balance with magnetic suspension - one sinker, m1 = 0.0996	999.76
283.15 K, Buoyancy - hydrostatic balance with magnetic suspension - one sinker, m1 = 0.1004	999.78

O [water] + CCOCCO
[1], m2 = 0
Conditions	viscosity [mPa·s]
275.15 K	1.674
283.15 K	1.31

[1], m2 = 0
Conditions	mass density [kg/m3]
275.15 K, Pycnometric method	999.94
283.15 K, Buoyancy - hydrostatic balance with magnetic suspension - one sinker	999.7

O [water] + COCCO
[1], m2 = 0
Conditions	viscosity [mPa·s]
275.15 K	1.674
283.15 K	1.31

[1], m2 = 0
Conditions	mass density [kg/m3]
275.15 K, Pycnometric method	999.94
283.15 K, Buoyancy - hydrostatic balance with magnetic suspension - one sinker	999.7

COCCOCCO [2-(2-methoxyethoxy)ethanol]
Conditions	mass density [kg/m3]	refractive index
[2]	–	1.4245
[3]	1014.39	–

Source: the NIST ThermoML archive (doi:10.1016/j.jct.2011.07.008)
